Source: patent US20230210795A1, “3-HYDROXYBUTYRIC-ACID-CONTAINING OIL AND FAT COMPOSITION” (OSAKA GAS CO., LTD., priority 2020, published 2023)

Test: Deliquescence test: 1 g of composition left uncovered in a petri dish at 25° C. for 1 week, appearance and weight change evaluated
Assay type: physicochemical
Design: key: High fluidity and silky smoothness.; Δ: Slightly moist but highly fluid powder.; x: Agglomeration or deliquescence occurred
Conditions: for Appearance after 1 week / Appearance after 1 day: left uncovered at 25° C.
Description: R-3HB crystals or R-3HB salts (3HB-Na: sodium salt, 3HB-K: potassium salt) and oil and fat particles were weighed in the proportions shown in Table 2 below. Each mixture thereof was milled for 3 seconds five times in a mill mixer (IJM-M800-W, produced by Iris Ohyama Inc.). 1 g of each of the 3HB-containing compositions obtained in the Examples and Comparative Examples was weighed in petri dishes and left uncovered in a room adjusted to 25° C. for 1 week. The appearance and weight change of each composition was then evaluated. As comparative examples, combinations of commonly used silicon dioxide or calcium silicate and fat and/or oil were evaluated. […] The evaluation was made according to the following criteria.
o: High fluidity and silky smoothness. Δ: Slightly moist but highly fluid powder. x: Agglomeration or deliquescence occurred.

Appearance immediately after milling	Appearance after 1 week	Appearance after 1 day	Compound
Δ	x (Partial	x (Partial	CC(O)CC(=O)O (stereo not drawn) [Comp. Ex. 1, 3-Hydroxybutyric acid]
Δ	x	x	CC(O)CC(=O)[O-].[K+] (stereo not drawn) [Comp. Ex. 2]
∘	x	x	CC(O)CC(=O)[O-].[Na+] (stereo not drawn) [Comp. Ex. 3]
